For one assay, the system named is A549 cells. The assay can be described thus: Cellular proliferation/cytotoxicity assay (Alamar Blue), A549. It counts as cell-based. Particulars: Homo sapiens, 72 h, Alamar Blue (Resazurin), read-out: Anti-proliterative/Cytotoxic activity (A549 cells). The procedure:
(§1) Cellular Proliferation/Cytotoxicity Assay:
(§2) The anti-proliferative activity of the compounds as described herein, is evaluated using the OvCAR3, HCT116 and A549 cell lines and the Alamar Blue (Resazurin) cell viability assay (O'Brien et al. Eur J Biochem 267, 5421-5426, 2000). Resazurin is reduced to the fluorescent resorufin by cellular dehydrogenase activity, correlating with viable, proliferating cells. Test compounds are dissolved as 10 mM solutions in DMSO and subsequently diluted. Cells like HCT116 or A549 cells were seeded into 96 well flat bottom plates at a density of 10000 cells/well (OvCAR3 cells), 1000 cells/well (HCT116 cells) or 2000 cells/well (A549 cells) in a volume of 200 μl/well. 24 hours after seeding, 1 μl each of the compound dilutions are added into each well of the 96 well plates. Each compound dilution is tested as at least as duplicates. Wells containing untreated control cells were filled with 200 μl DMEM (Dulbecco's Modified Eagle Medium) containing 0.5 vol % v:v DMSO. The cells are then incubated with the substances for 72 h at 37° C. in a humidified atmosphere containing 5 vol % CO2. To determine the viability of the cells, 20 μl of a Resazurin solution (90 mg/l) are added. After 4 h incubation at 37° C., the fluorescence is measured by extinction at λ=544 nm and an emission of λ=590 nm (Wallac Victor2; Perkin Elmer, USA). For the calculation of the cell viability, the emission value from untreated cells is set as 100% viability and the fluorescence intensity of treated cells are set in relation to the values of untreated cells. Viabilities are expressed as % values. The corresponding IC50 values of the compounds for cytotoxic activity are determined from the concentration-effect curves by means of non-linear regression. The analysis of the data is performed using a biostatistical program (GraphPad Prism, USA).
(§3) Representative IC50 values for anti-proliferative/cytotoxic potency determined in the aforementioned assay follow from the following table, in which the numbers of the compound correspond to the numbers of the examples.
For orientation: Alamar Blue is a resazurin reagent that responds to reducing activity.

A further assay has as its system OvCAR3 cells. The assay can be described thus: Cellular proliferation/cytotoxicity assay (Alamar Blue), OvCAR3. In kind it is cell-based. To be noted: Homo sapiens, OVCAR-3, 72 h, Alamar Blue (Resazurin), read-out: Anti-proliferative/Cytotoxic activity (OvCAR3 cells). How it is done: as §1, §2, §3

`Clc1cnc2nc(-c3ccc(CN4CCC(c5n[nH]c(-c6ccccn6)n5)CC4)cc3)c(-c3ccccc3)cn12` [Example 12, 3-chloro-6-phenyl-7-(4-{[4-(5-pyridin-2-yl-1,2,4-triazol-3-yl)piperidin-1-yl]methyl}phenyl)imidazo[1,2-a]pyrimidine]: the IC50 with A549 cells and in the assay with OvCAR3 cells was < 10 µM in each case.

Take `N#Cc1cnc2nc(-c3ccc(CN4CCC(c5n[nH]c(-c6ccccn6)n5)CC4)cc3)c(-c3ccccc3)cn12` [Example 8, 6-phenyl-7-(4-{[4-(5-pyridin-2-yl-1,2,4-triazol-3-yl)piperidin-1-yl]methyl}phenyl)imidazo[1,2-a]pyrimidine-3-carbonitrile]: the IC50 was > 10 µM with A549 cells and < 10 µM in the assay on OvCAR3 cells.

Regarding `C=Cc1cnc2nc(-c3ccc(CN4CCC(c5n[nH]c(-c6ccccn6)n5)CC4)cc3)c(-c3ccccc3)cn12` [Example 15, 6-phenyl-7-(4-{[4-(5-pyridin-2-yl-1,2,4-triazol-3-yl)piperidin-1-yl]methyl}phenyl)-3-vinylimidazo[1,2-a]pyrimidine], the IC50 with A549 cells was > 10 µM; with OvCAR3 cells it was < 10 µM.

As to `c1ccc(-c2cn3ccnc3nc2-c2ccc(CN3CCC(n4cnc(-c5ccccn5)c4)CC3)cc2)cc1` [Example 20, 6-phenyl-7-(4-{[4-(4-pyridin-2-yl-imidazol-1-yl)piperidin-1-yl]methyl}phenyl)imidazo[1,2-a]pyrimidine], the results for the IC50 in the assay with A549 cells and in the assay with OvCAR3 cells were > 10 µM and < 10 µM, respectively.

Consider `c1ccc(-c2cn3ncnc3nc2-c2ccc(CN3CCC(c4n[nH]c(-c5ccccn5)n4)CC3)cc2)cc1` [Example 2, 6-phenyl-5-(4-{[4-(5-pyridin-2-yl-1,2,4-triazol-3-yl)piperidin-1-yl]methyl}phenyl)[1,2,4]triazolo[1,5-a]pyrimidine], for which the figures for the IC50 with A549 cells and in the assay with OvCAR3 cells were > 10 µM and < 10 µM, respectively.

As to `Brc1cnc2nc(-c3ccc(CN4CCC(c5n[nH]c(-c6ccccn6)n5)CC4)cc3)c(-c3ccccc3)cn12` [Example 11, 3-bromo-6-phenyl-7-(4-{[4-(5-pyridin-2-yl-1,2,4-triazol-3-yl)piperidin-1-yl]methyl}phenyl)imidazo[1,2-a]pyrimidine], the IC50 with A549 cells is > 10 µM; in the assay with OvCAR3 cells it was < 10 µM.

For `CNc1c(-c2ccccc2)c(-c2ccc(CN3CCC(c4n[nH]c(-c5ccccn5)n4)CC3)cc2)nc2nccn12` [Example 10, N-methyl-6-phenyl-7-(4-{[4-(5-pyridin-2-yl-1,2,4-triazol-3-yl)piperidin-1-yl]methyl}phenyl)imidazo[1,2-a]pyrimidin-5-amine], the IC50 is > 10 µM in the assay with A549 cells and < 10 µM in the assay with OvCAR3 cells.

Regarding `CCOC(=O)c1cn2cc(-c3ccccc3)c(-c3ccc(CN4CCC(c5n[nH]c(-c6ccccn6)n5)CC4)cc3)nc2n1` [Example 16, Ethyl 6-phenyl-7-(4-{[4-(5-pyridin-2-yl-1,2,4-triazol-3-yl)piperidin-1-yl]methyl}phenyl)imidazo[1,2-a]pyrimidine-2-carboxylate], the IC50 in the assay with A549 cells is > 10 µM; in the assay with OvCAR3 cells, < 10 µM.

With `c1ccc(-c2cn3ccnc3nc2-c2ccc(CN3CCC(c4n[nH]c(-c5ccncc5)n4)CC3)cc2)cc1` [Example 6, 6-phenyl-7-(4-{[4-(5-pyridin-4-yl-1,2,4-triazol-3-yl)piperidin-1-yl]methyl}phenyl)imidazo[1,2-a]pyrimidine], the IC50 in the assay on A549 cells and in the assay on OvCAR3 cells was < 10 µM each time.

With `c1ccc(-c2cn3ccnc3nc2-c2ccc(CN3CCC(c4n[nH]c(-c5cnccn5)n4)CC3)cc2)cc1` [Example 21, 6-phenyl-7-(4-{[4-(5-pyrazin-2-yl-1,2,4-triazol-3-yl)piperidin-1-yl]methyl}phenyl)imidazo[1,2-a]pyrimidine], the IC50 is > 10 µM in the assay on A549 cells and < 10 µM in the assay with OvCAR3 cells.

For `C#Cc1cnc2nc(-c3ccc(CN4CCC(c5n[nH]c(-c6ccccn6)n5)CC4)cc3)c(-c3ccccc3)cn12` [Example 13, 3-ethynyl-6-phenyl-7-(4-{[4-(5-pyridin-2-yl-1,2,4-triazol-3-yl)piperidin-1-yl]methyl}phenyl)imidazo[1,2-a]pyrimidine], the IC50 in the assay on A549 cells and with OvCAR3 cells was < 10 µM each time.

For the molecule `Cc1cnc2nc(-c3ccc(CN4CCC(c5n[nH]c(-c6ccccn6)n5)CC4)cc3)c(-c3ccccc3)cn12` [Example 14, 3-methyl-6-phenyl-7-(4-{[4-(5-pyridin-2-yl-1,2,4-triazol-3-yl)piperidin-1-yl]methyl}phenyl)imidazo[1,2-a]pyrimidine], the IC50 in the assay with A549 cells and with OvCAR3 cells was < 10 µM each time.

With `c1ccc(-c2cn3ccnc3nc2-c2ccc(CN3CCC(c4n[nH]c(-c5ncccn5)n4)CC3)cc2)cc1` [Example 18, 6-phenyl-7-(4-{[4-(5-pyrimidin-2-yl-1,2,4-triazol-3-yl)piperidin-1-yl]methyl}phenyl)imidazo[1,2-a]pyrimidine], the IC50 with A549 cells is > 10 µM; in the assay on OvCAR3 cells, < 10 µM.

As for `c1ccc(-c2cn3ccnc3nc2-c2ccc(CN3CCC(c4nc(-c5ccccn5)n[nH]4)CC3)cc2)cc1` [Example 1, 6-phenyl-7-(4-{[4-(3-pyridin-2-yl-1,2,4-triazol-5-yl)piperidin-1-yl]methyl}phenyl)imidazo[1,2-a]pyrimidine], the IC50 was > 10 µM in the assay on A549 cells and < 10 µM with OvCAR3 cells.

Turning to `Cc1nc2nc(-c3ccc(CN4CCC(c5n[nH]c(-c6ccccn6)n5)CC4)cc3)c(-c3ccccc3)cn2n1` [Example 3, 2-methyl-6-phenyl-5-(4-{[4-(5-pyridin-2-yl-1,2,4-triazol-3-yl)piperidin-1-yl]methyl}phenyl)[1,2,4]triazolo[1,5-a]pyrimidine], the IC50 in the assay with A549 cells and in the assay with OvCAR3 cells was < 10 µM each time.

Consider `CCc1cn2cc(-c3ccccc3)c(-c3ccc(CN4CCC(c5n[nH]c(-c6ccccn6)n5)CC4)cc3)nc2n1` [Example 17, 2-ethyl-6-phenyl-7-(4-{[4-(5-pyridin-2-yl-1,2,4-triazol-3-yl)piperidin-1-yl]methyl}phenyl)imidazo[1,2-a]pyrimidine], for which the IC50 in the assay with A549 cells and with OvCAR3 cells was < 10 µM throughout.

`c1ccc(-c2cn3ccnc3nc2-c2ccc(CN3CCC(c4cc(-c5ccccn5)n[nH]4)CC3)cc2)cc1` [Example 5, 6-phenyl-7-(4-{[4-(3-pyridin-2-yl-pyrazol-5-yl)piperidin-1-yl]methyl}phenyl)imidazo[1,2-a]pyrimidine]: the IC50 with A549 cells and with OvCAR3 cells was < 10 µM each time.

With `CCc1cnc2nc(-c3ccc(CN4CCC(c5n[nH]c(-c6ccccn6)n5)CC4)cc3)c(-c3ccccc3)cn12` [Example 22, 3-ethyl-6-phenyl-7-(4-{[4-(5-pyridin-2-yl-1,2,4-triazol-3-yl)piperidin-1-yl]methyl}phenyl)imidazo[1,2-a]pyrimidine], the values for the IC50 in the assay with A549 cells and in the assay with OvCAR3 cells were > 10 µM and < 10 µM, respectively.

On to `Fc1cnc2nc(-c3ccc(CN4CCC(c5n[nH]c(-c6ccccn6)n5)CC4)cc3)c(-c3ccccc3)cn12` [Example 9, 3-fluoro-6-phenyl-7-(4-{[4-(5-pyridin-2-yl-1H-1,2,4-triazol-3-yl)piperidin-1-yl]methyl}phenyl)imidazo[1,2-a]pyrimidine], for which the IC50 was > 10 µM in the assay on A549 cells and < 10 µM in the assay with OvCAR3 cells.

Turning to `c1ccc(-c2cn3nc(C4CCC4)nc3nc2-c2ccc(CN3CCC(c4n[nH]c(-c5ccccn5)n4)CC3)cc2)cc1` [Example 7, 2-cyclobutyl-6-phenyl-5-(4-{[4-(5-pyridin-2-yl-1,2,4-triazol-3-yl)piperidin-1-yl]methyl}phenyl)[1,2,4]triazolo[1,5-a]pyrimidine], the IC50 is > 10 µM in the assay on A549 cells and < 10 µM with OvCAR3 cells.

Consider `CNc1nc2nc(-c3ccc(CN4CCC(c5n[nH]c(-c6ccccn6)n5)CC4)cc3)c(-c3ccccc3)cn2n1` [Example 65, N-Methyl-6-phenyl-5-(4-{[4-(5-pyridin-2-yl-1H-1,2,4-triazol-3-yl)piperidin-1-yl]methyl}phenyl)[1,2,4]triazolo[1,5-a]pyrimidin-2-amine], for which the IC50 in the assay with A549 cells was < 10 µM.

Take `c1ccc(-c2cn3nc(C4CC4)nc3nc2-c2ccc(CN3CCC(c4n[nH]c(-c5ccccn5)n4)CC3)cc2)cc1` [Example 4, 2-cyclopropyl-6-phenyl-5-(4-{[4-(5-pyridin-2-yl-1,2,4-triazol-3-yl)piperidin-1-yl]methyl}phenyl)[1,2,4]triazolo[1,5-a]pyrimidine]: the IC50 in the assay with A549 cells and in the assay with OvCAR3 cells was < 10 µM in each case.

For `c1ccc(-c2cn3nccc3nc2-c2ccc(CN3CCC(c4n[nH]c(-c5ccccn5)n4)CC3)cc2)cc1` [Example 19, 6-phenyl-5-(4-{[4-(5-pyridin-2-yl-1,2,4-triazol-3-yl)piperidin-1-yl]methyl}phenyl)pyrazolo[1,5-a]pyrimidine], the IC50 is > 10 µM with A549 cells and < 10 µM in the assay on OvCAR3 cells.

(Values after patent US8614218B2, “Fused bicyclic pyrimidines” (Bayer Intellectual Property GmbH, priority 2007, dated 2013).)
